Converted amounts (≈) assume the structure as drawn.
What was measured:
Type in all cases: functional
Streptococcus pneumoniae = assay: Antimicrobial activity against Streptococcus pneumoniae IID553 by micro broth dilution or agar based method; conditions: Streptococcus pneumoniae, IID553; read-out: MIC
Staphylococcus aureus [1] = assay: Antimicrobial activity against methicillin-resistant Staphylococcus aureus OIT971 by micro broth dilution or agar based method
Acinetobacter baumannii = assay: Antimicrobial activity against Acinetobacter baumannii IID876 by micro broth dilution or agar based method; conditions: Acinetobacter baumannii, IID876; read-out: MIC
Escherichia coli = assay: Antimicrobial activity against Escherichia coli ATCC 25922 by micro broth dilution or agar based method; conditions: Escherichia coli, ATCC 25922; read-out: MIC
Pseudomonas aeruginosa = assay: Antimicrobial activity against Pseudomonas aeruginosa PAO1 by micro broth dilution or agar based method; conditions: Pseudomonas aeruginosa, PAO1; read-out: MIC
Staphylococcus aureus [2] = assay: Antimicrobial activity against Staphylococcus aureus Smith by micro broth dilution or agar based method
Enterococcus faecium = assay: Antimicrobial activity against VanA expressing vancomycin-resistant Enterococcus faecium by micro broth dilution or agar based method; conditions: Enterococcus faecium; read-out: MIC
[3] = Staphylococcus aureus, Smith, read-out: MIC

Structure (SMILES) | MIC (Streptococcus pneumoniae) [µg/mL] | MIC (Staphylococcus aureus [1]) [µg/mL] | MIC (Acinetobacter baumannii) [µg/mL] | MIC (Escherichia coli) [µg/mL] | MIC (Pseudomonas aeruginosa) [µg/mL] | MIC (Staphylococcus aureus [2]; [3]) [µg/mL] | MIC (Enterococcus faecium) [µg/mL] | MIC (Staphylococcus aureus [2]) [µg/mL]
O=C1COc2ccc(CNC34CCC(CCc5ccnc6cc(Cl)cnc56)(CC3)OC4)nc2N1 | 64 (≈ 133 µM) | 16 (≈ 33.3 µM) | 64 (≈ 133 µM) | 64 (≈ 133 µM) | 64 (≈ 133 µM) | 64 (≈ 133 µM) | 64 (≈ 133 µM) | –
N#Cc1ccc2ncc(F)c(CCC34CCC(NCc5ccc6c(n5)NC(=O)CO6)(CC3)CO4)c2n1 | 1 (≈ 2.05 µM) | 0.063 (≈ 0.129 µM) | 1 (≈ 2.05 µM) | 2 (≈ 4.09 µM) | 8 (≈ 16.4 µM) | 0.063 (≈ 0.129 µM) | 2 (≈ 4.09 µM) | –
COc1ccc2ncc(F)c(C[C@H](O)C34CCC(NCc5ccc6c(n5)NC(=O)CO6)(CC3)CO4)c2n1 | 0.05 (≈ 0.0981 µM) | 0.06 (≈ 0.118 µM) | 0.5 (≈ 0.981 µM) | 2 (≈ 3.93 µM) | 8 (≈ 15.7 µM) | 0.02 (≈ 0.0393 µM) | 0.5 (≈ 0.981 µM) | –
COc1nc2c(CCC34CCC(NCc5ccc6c(n5)NC(=O)CO6)(CC3)CO4)ccnc2cc1Cl | 8 (≈ 15.7 µM) | 0.25 (≈ 0.49 µM) | 32 (≈ 62.7 µM) | 32 (≈ 62.7 µM) | 32 (≈ 62.7 µM) | 0.5 (≈ 0.98 µM) | 16 (≈ 31.4 µM) | –
O=C1COc2ccc(CNC34CCC(CCc5ccnc6ccc(C(F)(F)F)nc56)(CC3)OC4)nc2N1 | 32 (≈ 62.3 µM) | 1 (≈ 1.95 µM) | 8 (≈ 15.6 µM) | 32 (≈ 62.3 µM) | 64 (≈ 125 µM) | 2 (≈ 3.89 µM) | 16 (≈ 31.2 µM) | –
COc1cc2nccc(CCC34CCC(NCc5ccc6c(n5)NC(=O)CO6)(CC3)CO4)c2nc1OC | 8 (≈ 15.8 µM) | 1 (≈ 1.98 µM) | 8 (≈ 15.8 µM) | 8 (≈ 15.8 µM) | 8 (≈ 15.8 µM) | 2 (≈ 3.96 µM) | 8 (≈ 15.8 µM) | –
COc1nc2c(CCC34CCC(NCc5ccc6c(n5)NC(=O)CO6)(CC3)CO4)ccnc2cc1C#N | 64 (≈ 128 µM) | 2 (≈ 4 µM) | 64 (≈ 128 µM) | 64 (≈ 128 µM) | 64 (≈ 128 µM) | 16 (≈ 32 µM) | 64 (≈ 128 µM) | –
COc1cc(C)c2nccc(CCC34CCC(NCc5ccc6c(n5)NC(=O)CO6)(CC3)CO4)c2n1 | 1 (≈ 2.04 µM) | 0.063 (≈ 0.129 µM) | 8 (≈ 16.3 µM) | 8 (≈ 16.3 µM) | 32 (≈ 65.4 µM) | 0.125 (≈ 0.255 µM) | 8 (≈ 16.3 µM) | –
COc1ccc2ncc(C#N)c(CC(O)C34CCC(NCc5ccc6c(n5)NC(=O)CO6)(CC3)CO4)c2n1 (stereo in doubt; 88) | 0.25 (≈ 0.484 µM) | 0.031 (≈ 0.06 µM) | 0.5 (≈ 0.968 µM) | 4 (≈ 7.74 µM) | 8 (≈ 15.5 µM) | – | 1 (≈ 1.94 µM) | 0.031 (≈ 0.06 µM)
CN(C)c1nc2c(CCC34CCC(NCc5ccc6c(n5)NC(=O)CO6)(CC3)CO4)ccnc2cc1F | 16 (≈ 31.6 µM) | 1 (≈ 1.97 µM) | 16 (≈ 31.6 µM) | 16 (≈ 31.6 µM) | 16 (≈ 31.6 µM) | 1 (≈ 1.97 µM) | 16 (≈ 31.6 µM) | –
O=C1COc2ccc(CNC34CCC(CCc5c(F)cnc6cccnc56)(CC3)OC4)nc2N1 | 4 (≈ 8.63 µM) | 0.25 (≈ 0.539 µM) | 1 (≈ 2.16 µM) | 4 (≈ 8.63 µM) | 16 (≈ 34.5 µM) | 0.5 (≈ 1.08 µM) | 4 (≈ 8.63 µM) | –
O=C1COc2ccc(CNC34CCC(CCc5ccnc6cc(C(F)(F)F)cnc56)(CC3)OC4)nc2N1 | 64 (≈ 125 µM) | 64 (≈ 125 µM) | 64 (≈ 125 µM) | 64 (≈ 125 µM) | 64 (≈ 125 µM) | 64 (≈ 125 µM) | 64 (≈ 125 µM) | –
Nc1ccc2ncc(F)c(CCC34CCC(NCc5ccc6c(n5)NC(=O)CO6)(CC3)CO4)c2n1 | 16 (≈ 33.4 µM) | 1 (≈ 2.09 µM) | 2 (≈ 4.18 µM) | 8 (≈ 16.7 µM) | 16 (≈ 33.4 µM) | 2 (≈ 4.18 µM) | 8 (≈ 16.7 µM) | –
COc1cc2nccc(CCC34CCC(NCc5ccc6c(n5)NC(=O)CO6)(CC3)CO4)c2nc1C(=O)O | 16 (≈ 30.8 µM) | 16 (≈ 30.8 µM) | 16 (≈ 30.8 µM) | 16 (≈ 30.8 µM) | 16 (≈ 30.8 µM) | 16 (≈ 30.8 µM) | 16 (≈ 30.8 µM) | –
Cc1cc(C#N)nc2c(CCC34CCC(NCc5ccc6c(n5)NC(=O)CO6)(CC3)CO4)ccnc12 | 8 (≈ 16.5 µM) | 0.5 (≈ 1.03 µM) | 4 (≈ 8.25 µM) | 16 (≈ 33 µM) | 64 (≈ 132 µM) | 1 (≈ 2.06 µM) | 8 (≈ 16.5 µM) | –
COc1nc2c(CCC34CCC(NCc5ccc6c(n5)NC(=O)CO6)(CC3)CO4)c(F)cnc2cc1C(F)(F)F | 8 (≈ 14.2 µM) | 8 (≈ 14.2 µM) | 8 (≈ 14.2 µM) | 8 (≈ 14.2 µM) | 8 (≈ 14.2 µM) | 8 (≈ 14.2 µM) | 8 (≈ 14.2 µM) | –
O=C1COc2ccc(CNC34CCC(CCc5ccnc6cc(F)cnc56)(CC3)OC4)nc2N1 | 32 (≈ 69 µM) | 8 (≈ 17.3 µM) | 16 (≈ 34.5 µM) | 32 (≈ 69 µM) | 32 (≈ 69 µM) | 16 (≈ 34.5 µM) | 32 (≈ 69 µM) | –
CN(C)c1ccc2ncc(F)c(CCC34CCC(NCc5ccc6c(n5)NC(=O)CO6)(CC3)CO4)c2n1 | 2 (≈ 3.95 µM) | 0.25 (≈ 0.494 µM) | 8 (≈ 15.8 µM) | 8 (≈ 15.8 µM) | 8 (≈ 15.8 µM) | 0.25 (≈ 0.494 µM) | 4 (≈ 7.9 µM) | –
N#Cc1ccc2ncc(C#N)c(CCC34CCC(NCc5ccc6c(n5)NC(=O)CO6)(CC3)CO4)c2n1 | 1 (≈ 2.02 µM) | 0.125 (≈ 0.252 µM) | 2 (≈ 4.04 µM) | 8 (≈ 16.1 µM) | 16 (≈ 32.3 µM) | 0.25 (≈ 0.504 µM) | 4 (≈ 8.07 µM) | –
CN(C)c1nc2c(CCC34CCC(NCc5ccc6c(n5)NC(=O)CO6)(CC3)CO4)ccnc2cc1C(F)(F)F | 8 (≈ 14.4 µM) | 8 (≈ 14.4 µM) | 8 (≈ 14.4 µM) | 8 (≈ 14.4 µM) | 8 (≈ 14.4 µM) | 8 (≈ 14.4 µM) | 8 (≈ 14.4 µM) | –
Cc1nc2c(CCC34CCC(NCc5ccc6c(n5)NC(=O)CO6)(CC3)CO4)ccnc2cc1C#N | 16 (≈ 33 µM) | 16 (≈ 33 µM) | 16 (≈ 33 µM) | 16 (≈ 33 µM) | 16 (≈ 33 µM) | 16 (≈ 33 µM) | 16 (≈ 33 µM) | –
O=C1COc2ccc(CNC34CCC(CCc5c(F)cnc6cc(Cl)cnc56)(CC3)OC4)nc2N1 | 32 (≈ 64.3 µM) | 8 (≈ 16.1 µM) | 32 (≈ 64.3 µM) | 32 (≈ 64.3 µM) | 32 (≈ 64.3 µM) | 8 (≈ 16.1 µM) | 32 (≈ 64.3 µM) | –
COc1cnc2c(CCC34CCC(NCc5ccc6c(n5)NC(=O)CO6)(CC3)CO4)ccnc2c1 | 64 (≈ 135 µM) | 8 (≈ 16.8 µM) | 64 (≈ 135 µM) | 64 (≈ 135 µM) | 64 (≈ 135 µM) | 32 (≈ 67.3 µM) | 64 (≈ 135 µM) | –
COc1cc2nccc(CCC34CCC(NCc5ccc6c(n5)NC(=O)CO6)(CC3)CO4)c2nc1C#N | 32 (≈ 63.9 µM) | 2 (≈ 4 µM) | 32 (≈ 63.9 µM) | 32 (≈ 63.9 µM) | 32 (≈ 63.9 µM) | 8 (≈ 16 µM) | 32 (≈ 63.9 µM) | –
COC(=O)c1ccc2ncc(F)c(CCC34CCC(NCc5ccc6c(n5)NC(=O)CO6)(CC3)CO4)c2n1 | 16 (≈ 30.7 µM) | 0.063 (≈ 0.121 µM) | 2 (≈ 3.83 µM) | 8 (≈ 15.3 µM) | 16 (≈ 30.7 µM) | 0.063 (≈ 0.121 µM) | 16 (≈ 30.7 µM) | –
COc1cc(OC)c2nccc(CCC34CCC(NCc5ccc6c(n5)NC(=O)CO6)(CC3)CO4)c2n1 | 8 (≈ 15.8 µM) | 0.25 (≈ 0.494 µM) | 8 (≈ 15.8 µM) | 32 (≈ 63.3 µM) | 64 (≈ 127 µM) | 0.5 (≈ 0.989 µM) | 8 (≈ 15.8 µM) | –
COc1cc(C)c2ncc(F)c(CCC34CCC(NCc5ccc6c(n5)NC(=O)CO6)(CC3)CO4)c2n1 | 0.25 (≈ 0.493 µM) | 0.008 (≈ 0.0158 µM) | 2 (≈ 3.94 µM) | 4 (≈ 7.88 µM) | 16 (≈ 31.5 µM) | 0.016 (≈ 0.0315 µM) | 2 (≈ 3.94 µM) | –
COc1cc(CCC23CCC(NCc4ccc5c(n4)NC(=O)CO5)(CC2)CO3)c2nc(OC)ccc2n1 | 8 (≈ 15.8 µM) | 1 (≈ 1.98 µM) | 8 (≈ 15.8 µM) | 8 (≈ 15.8 µM) | 8 (≈ 15.8 µM) | 4 (≈ 7.91 µM) | 8 (≈ 15.8 µM) | –
